Results from ChEMBL document CHEMBL5465560, “Selectivity Literature for EUbOPEN Chemogenomic Library” (2024).
Changes are numbered by the printed parent chain.

Legend:
[1] = test system: T1, Receptor-type tyrosine-protein kinase FLT3 (Homo sapiens), P36888 [R834Q]; assay: (§1) Selectivity interaction (KinomeScan (DiscoverX)) EUB0000229b FLT3; settings: at 1 µM
T1 sequence (whole entry): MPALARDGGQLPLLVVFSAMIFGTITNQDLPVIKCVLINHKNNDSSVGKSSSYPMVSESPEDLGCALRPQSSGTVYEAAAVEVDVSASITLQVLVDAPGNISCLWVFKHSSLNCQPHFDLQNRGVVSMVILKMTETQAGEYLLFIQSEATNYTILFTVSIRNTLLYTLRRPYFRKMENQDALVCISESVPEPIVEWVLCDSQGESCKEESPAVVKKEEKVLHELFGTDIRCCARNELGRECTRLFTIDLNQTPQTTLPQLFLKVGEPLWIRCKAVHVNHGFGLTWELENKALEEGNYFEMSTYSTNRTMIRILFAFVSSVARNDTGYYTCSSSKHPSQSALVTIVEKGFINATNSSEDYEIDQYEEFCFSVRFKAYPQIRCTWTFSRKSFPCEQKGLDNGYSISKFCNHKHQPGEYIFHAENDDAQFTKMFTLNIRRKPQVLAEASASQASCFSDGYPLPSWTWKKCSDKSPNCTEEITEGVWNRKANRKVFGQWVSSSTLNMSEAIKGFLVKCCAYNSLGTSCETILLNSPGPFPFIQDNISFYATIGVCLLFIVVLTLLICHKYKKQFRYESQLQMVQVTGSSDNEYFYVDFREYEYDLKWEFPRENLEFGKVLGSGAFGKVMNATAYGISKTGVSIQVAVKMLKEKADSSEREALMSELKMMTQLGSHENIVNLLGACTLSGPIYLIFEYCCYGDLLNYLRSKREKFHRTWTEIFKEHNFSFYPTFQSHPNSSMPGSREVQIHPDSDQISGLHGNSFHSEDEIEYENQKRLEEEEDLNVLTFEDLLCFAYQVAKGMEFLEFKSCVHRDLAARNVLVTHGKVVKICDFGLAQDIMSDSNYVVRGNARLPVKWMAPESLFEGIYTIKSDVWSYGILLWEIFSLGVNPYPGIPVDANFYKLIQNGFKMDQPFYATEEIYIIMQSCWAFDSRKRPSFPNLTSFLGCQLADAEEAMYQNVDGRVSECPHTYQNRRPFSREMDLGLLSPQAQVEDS

[2] = test system: Receptor-type tyrosine-protein kinase FLT3 (Homo sapiens), P36888 [UNDEFINED MUTATION]; assay: as §1; settings: at 1 µM
[3] = test system: T2, Receptor-type tyrosine-protein kinase FLT3 (Homo sapiens), P36888 [D835V]; assay: as §1; settings: at 1 µM
T2 sequence (whole entry): T1 sequence (whole entry) with Q834R, D835V

[4] = test system: T3, Receptor-type tyrosine-protein kinase FLT3 (Homo sapiens), P36888 [D835H]; assay: as §1; settings: at 1 µM
T3 sequence (whole entry): T1 sequence (whole entry) with Q834R, D835H

OATP1B1 (SLCO1B1) = OATP1B1 (SLCO1B1) (Homo sapiens, UniProt Q9Y6L6); assay: Selectivity interaction (Panel of kinases, GPCRs, ion channels and transporters (enzymatic assay)) EUB0000223bCl SLCO1B1; settings: not told
Chain of OATP1B1 (SLCO1B1) (Q9Y6L6 whole entry): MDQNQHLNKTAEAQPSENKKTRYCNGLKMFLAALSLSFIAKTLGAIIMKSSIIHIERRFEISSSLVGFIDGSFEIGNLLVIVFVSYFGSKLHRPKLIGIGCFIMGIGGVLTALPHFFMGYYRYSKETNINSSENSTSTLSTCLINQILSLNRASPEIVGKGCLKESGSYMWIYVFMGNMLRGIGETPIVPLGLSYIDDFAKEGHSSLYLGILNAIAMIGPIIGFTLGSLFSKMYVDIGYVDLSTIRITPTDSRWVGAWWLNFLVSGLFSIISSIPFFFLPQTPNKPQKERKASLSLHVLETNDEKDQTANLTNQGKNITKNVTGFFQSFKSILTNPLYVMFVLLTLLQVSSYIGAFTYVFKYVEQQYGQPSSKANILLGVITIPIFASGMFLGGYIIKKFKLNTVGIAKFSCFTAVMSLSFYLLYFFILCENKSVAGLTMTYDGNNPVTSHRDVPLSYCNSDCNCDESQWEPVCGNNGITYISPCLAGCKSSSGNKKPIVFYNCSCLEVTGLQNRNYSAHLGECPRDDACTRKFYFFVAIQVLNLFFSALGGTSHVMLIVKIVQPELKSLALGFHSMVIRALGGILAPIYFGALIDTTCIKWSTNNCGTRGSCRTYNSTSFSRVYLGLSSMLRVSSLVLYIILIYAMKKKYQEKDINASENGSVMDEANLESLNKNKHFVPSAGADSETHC

Row | SMILES | % binding [1] | % binding [2] | % binding [3] | % binding [4] | XC50 (OATP1B1 (SLCO1B1))
1 | COc1cc(N(C)c2ccnc3ccc(C(F)(F)F)cc23)cc(OC)c1OC | 100% | 54% | 88% | 90% | 
2 | COc1cc(C(=O)N2CC[C@@H](O)[C@@H](N)C2)cc2nc(-c3cc4ccccc4n3CC3CC3)n(C)c12 |  |  |  |  | 7.94 µM
